Assay results taken from PubChem BioAssay (NCI).
“And” between values parts separate entries of the source, which are not always exact repeats. Identical values can stand only once.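 Step 1: Grow cells in 96-well plates. Step 2: Expose to compound for 48 hours at 5 concentrations. Step 3: Interpolate endpoints linearly; if unreached, use highest concentration. The concentration for 50% growth inhibition is given as GI50. The concentration for full growth arrest is given as TGI.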

Experiments:
Experiment in all cases: NCI tumour cell line growth inhibition, 48 h
IGROV1 ovarian = tested on: IGROV1 ovarian
COLO 205 colon = tested on: COLO 205 colon
HOP-62 NSCLC = tested on: HOP-62 NSCLC
BT-549 breast = tested on: BT-549 breast
RXF 393 renal = tested on: RXF 393 renal
OVCAR-4 ovarian = tested on: OVCAR-4 ovarian
SK-OV-3 ovarian = tested on: SK-OV-3 ovarian
EKVX NSCLC = tested on: EKVX NSCLC
NCI-H23 lung = tested on: NCI-H23 lung
SN12C renal = tested on: SN12C renal

Row | Structure (SMILES) | TGI (IGROV1 ovarian) | TGI (COLO 205 colon) | TGI (HOP-62 NSCLC) | TGI (BT-549 breast) | TGI (RXF 393 renal) | TGI (OVCAR-4 ovarian) | TGI (SK-OV-3 ovarian) | TGI (EKVX NSCLC) | TGI (NCI-H23 lung) | TGI (SN12C renal) | GI50 (BT-549 breast) | GI50 (RXF 393 renal) | GI50 (OVCAR-4 ovarian) | GI50 (EKVX NSCLC) | GI50 (NCI-H23 lung) [nM] | GI50 (SN12C renal)
1 | CCCCC(=C=C1CCCCC1O)C1CCCN1C(=O)OC(C)(C)C (stereo unspecified) | 31.1 µM | 43.8 µM | 31.7 µM | 35.4 µM | 27.1 µM | 27.4 µM | 31.2 µM | 28.4 µM | 32.4 µM | 31.7 µM |  |  |  |  |  | 
2 | CSC1(SC)CCCCCCCCCCC1 | > 100 µM | 33.9 µM | > 100 µM | > 100 µM | > 100 µM | > 100 µM | > 100 µM | > 100 µM | > 100 µM | > 100 µM |  |  |  |  |  | 
3 | CN(C)CCNc1nc2ccccc2c2c1C(=O)c1ccccc1-2 | 0.807 µM | 2.23 µM | 3.72 µM | 3.14 µM | 1.13 µM | 1.41 µM | 13.1 µM | 3.09 µM | 1.82 µM | 0.45 µM |  |  |  |  |  | 
4 | O=C(O)c1ccccc1-c1ccccc1C(=O)c1ccccc1 | > 100 µM | > 100 µM | > 100 µM | > 100 µM | > 100 µM | > 100 µM | > 100 µM | > 100 µM | > 100 µM | > 100 µM |  |  |  |  |  | 
5 | C/C(=C/CC[C@](C)(OC1OC(CO)C(O)C(O)C1O)[C@H]1CC[C@]2(C)[C@@H]1CC[C@@H]1[C@@]3(C)CC[C@H](O)C(C)(C)[C@@H]3C[C@H](O)[C@]12C)CO (stereo partly specified) | > 100 µM | 41 µM | 69.9 µM | 31.2 µM | 19.4 µM | > 100 µM | > 100 µM | > 100 µM | > 100 µM | 66.4 µM |  |  |  |  |  | 
6 | COc1cc(C2S/C(=C/c3ccccc3)C(=O)N2c2ccc(Cl)cc2)cc(OC)c1OC (stereo unspecified) | > 100 µM | 5.68 µM | > 100 µM | > 100 µM | > 100 µM | > 100 µM | > 100 µM | > 100 µM | > 100 µM | > 100 µM |  |  |  |  |  | 
7 | CCOC(=O)Cc1nc2c(=O)[nH]cnc2n1C1OC(COC(C)=O)C(OC(C)=O)C1OC(C)=O (stereo unspecified) | > 100 µM | > 100 µM | > 100 µM | > 100 µM | > 100 µM | > 100 µM | > 100 µM | > 100 µM | > 100 µM | > 100 µM |  |  |  |  |  | 
8 | CNC(=O)OCC1=C(COC(=O)NC)CN(c2ccccc2)C1 | > 100 µM | > 100 µM | > 100 µM | > 100 µM | > 100 µM | > 100 µM | > 100 µM | > 100 µM | > 100 µM | > 100 µM |  |  |  |  |  | 
9 | Cn1c(=O)c2[nH]c(N/N=C3/SCC(=O)N3Cc3ccccc3)nc2n(C)c1=O | > 100 µM | > 100 µM | > 100 µM | > 100 µM | > 100 µM | > 100 µM | > 100 µM | > 100 µM | > 100 µM | > 100 µM |  |  |  |  |  | 
10 | CCOP(=O)(OCC)C(F)(F)CC1CCCCC1 | > 10 µM | > 10 µM | > 10 µM | > 10 µM | > 10 µM | > 10 µM | > 10 µM | > 10 µM | > 10 µM | > 10 µM |  |  |  |  |  | 
11 | COc1ccccc1OC/C(N=Cc1ccncc1)=N/NC(=O)c1ccncc1 | > 100 µM | > 100 µM | > 100 µM | > 100 µM | > 100 µM | > 100 µM | > 100 µM | > 100 µM | > 100 µM | > 100 µM |  |  |  |  |  | 
12 | O=C(Cc1nc2ccc([N+](=O)[O-])cc2[nH]c1=O)C(=O)Nc1cc(Cl)c(Cl)cc1Cl | > 100 µM | > 100 µM | > 100 µM | > 100 µM | > 100 µM | > 100 µM | > 100 µM | > 100 µM | > 100 µM | > 100 µM |  |  |  |  |  | 
13 | COc1cc(/C=C2\C[C@H]3[C@@H]4CC=C5C[C@@H](N6CCCC6)CC[C@]5(C)[C@H]4CC[C@]3(C)[C@H]2OC(C)=O)cc(OC)c1OC | 29.9 µM | 25.6 µM | 29.3 µM | 28.1 µM | 27 µM | 34.8 µM | 29.1 µM | 27.3 µM | 28.5 µM | 27.8 µM |  |  |  |  |  | 
14 | CN1C/C(=C\c2ccccc2[N+](=O)[O-])C(=O)/C(=C/c2ccccc2[N+](=O)[O-])C1 | 2.47 µM and 2.1 µM | 0.865 µM and 0.387 µM | 7.8 µM and 8.77 µM | 0.448 µM and 2.09 µM | 1.13 µM and 0.485 µM | 2.27 µM and 0.94 µM | 12.8 µM and 10.8 µM | 13.1 µM and 11 µM | 3.26 µM and > 20.7 µM | 4.88 µM and 2.22 µM | 149 nM and 626 nM | 477 nM and 191 nM | 708 nM and 298 nM | 2940 nM and 554 nM | 868 | 1980 nM and 809 nM
15 | CN(Cc1nc2c(N)nc(N)nc2nc1N)c1ccc(C(=O)NC(CCC(=O)O)C(=O)O)cc1 (stereo unspecified) | > 100 µM | > 100 µM | > 100 µM | > 100 µM | > 100 µM | > 100 µM | > 100 µM | > 100 µM | > 100 µM | > 100 µM |  |  |  |  |  | 
16 | OCc1ccccc1OC1OC(CO)C(O)C(O)C1O (stereo unspecified) | > 100 µM | > 100 µM | > 100 µM | > 100 µM | > 100 µM | > 100 µM | > 100 µM | > 100 µM | > 100 µM | > 100 µM |  |  |  |  |  | 
